Laboratory results as given in PMC6627331, “Identification of Small Molecule Inhibitors of Staphylococcus aureus RnpA” (Antibiotics, 2019).
≈ marks a conversion by molar mass, not a printed value. Where two headings read alike, the source gives them in different places.

Key:
[1] = target: T1, S. aureus RNase P (RnpA + rnpB) (Staphylococcus aureus, UniProt P0A0H5); test: RnpA-dependent RNase P in vitro ptRNA^Tyr processing assay; format: biochemical
T1 construct: hexahistidine (His6) (N); made in house; host or cells: E. coli BL21 (DE3), plasmid pEXP5-nt
T1 sequence (P0A0H5 1-117): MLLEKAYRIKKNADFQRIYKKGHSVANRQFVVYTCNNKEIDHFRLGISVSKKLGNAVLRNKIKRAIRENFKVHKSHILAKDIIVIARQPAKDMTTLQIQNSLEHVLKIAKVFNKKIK
Experimental: S. aureus RNase P activity assays were performed according to conditions described previously. Briefly, ptRNA^Tyr and rnpB RNA species were first denatured by heating to 95 °C for 5 min then slow cooled to room temperature. RNase P was reconstituted by mixing an equal molar ratio of rnpB and RnpA for 15 min at 37 °C. Precursor tRNA processing inhibition reactions were performed by mixing 1.25 pmol of reconstituted RNase P (RnpA + rnpB) with an equal volume of 2× low salt buffer (50 mM Tris-HCl pH 8.0, 5 mM MgCl2) in the presence of DMSO (negative control) or the indicated compound (≤500 µM) and incubated for 5 min at 37 °C. 5 pmol ptRNA^Tyr was added and the mixture was incubated at 37 °C 15 min. Reactions were stopped by adding 2× RNA loading dye and heating at 65 °C for 10 min. Each sample was electrophoresed in a 7 M urea/8% polyacrylamide gel then stained with ethidium bromide. The Biorad EZ Gel Doc imaging system was used to visualize the RNA and relative abundance of the mature tRNA^Tyr band (% processing) in the negative control or in samples containing the indicated compounds and analyzed using Biorad Image Lab densitometry software. The inhibitory activity of the indicated compounds were calculated as a % inhibition using the following equation: […].
To assess IC50, % RNase P processing inhibition was plotted against compound concentration and a linear best fit equation was generated to calculate the IC50.

[2] = target: T2, S. aureus RnpA (Staphylococcus aureus, UniProt P0A0H5); test: RnpA-mediated in vitro spa mRNA degradation assay; format: biochemical
T2 construct: hexahistidine (His6) (N); made in house; host or cells: E. coli BL21 (DE3), plasmid pEXP5-nt
T2 sequence (P0A0H5 1-117): T1 sequence (P0A0H5 1-117)
Experimental: RnpA-mediated RNA degradation assays were performed as previously described. Briefly, 1 pmol of spa mRNA was incubated with 5 pmol RnpA at 37 °C for 30 min in reaction buffer (50 mM Tris-HCl pH 8.0, 2 mM NaCl, 2 mM MgCl2) in the absence or presence of the indicated compound (≤500 µM). The inhibitory effects of the test compounds were calculated using Biorad ImageLab densitometry software to measure the signal intensity of the spa band in the negative control (spa alone), positive control (RnpA + spa + DMSO), and experimental samples (RnpA + spa + test compound) separated on a 1.2% formaldehyde-agarose gel. Background signal from the positive control sample sometimes resulted due to incomplete degradation of transcripts. Thus, the signal intensity of the positive control was taken into account when calculating the percent inhibition. The raw signals from the positive (+RnpA) and negative (-RnpA) controls were converted into percentage, by normalizing the positive control (+RnpA) signal to 0% RnpA inhibition and the negative control (-RnpA) to 100% RnpA inhibition. Similarly, the raw signals from the test compounds were reported as percent RnpA inhibition using the following equation: [(experimental−positive control)/(negative control−positive control)] × 100. […] To assess IC50, % RnpA degradation inhibition was plotted against compound concentration; a linear best fit equation was generated and utilized to calculate the IC50.

[3] = test system: S. aureus UAMS-1; test: Minimum inhibitory concentration (MIC) testing; format: cell-based, Staphylococcus aureus
Experimental: Minimum inhibitory concentration (MIC) testing was performed using to Clinical & Laboratory Standards Institute (CLSI) guidelines. Accordingly, individual wells of a 96-well microtiter plate were inoculated with 10^4 colony forming units (CFU) of S. aureus UAMS-1 containing two-fold increasing concentrations (0 to 256 μg·mL^−1) of the indicated antibiotic or putative RnpA inhibitor compound, and incubated at 37 °C for 16 h in MHB. The MIC was defined as the lowest concentration of compound in which there was no visible bacterial growth in the well.

[4] = test system: HepG2 cells; test: MTT human cell cytotoxicity testing; format: cell-based; details: 4× MIC exposure for 24 h; for MTT = % HepG2 cell survival: SAR figures; for % HepG2 Cell Survival: MTT
Experimental: Human HepG2 hepatocytes were seeded in individual wells of a 96-well cell-culture treated microtiter plate at a concentration of 1 × 10^5 cells per well and incubated in Dulbecco’s Modified Eagle Medium (DMEM) supplemented with 10% fetal bovine serum at 37 °C with 5% carbon dioxide overnight. Cells were then treated with DMSO (negative control) or the indicated agent for 24 h. MTT Cell Proliferation Assay Kits were used to assess viability according to the manufacturer’s recommendations (American Type Culture Collection; Manassas, VA, USA).

[5] = SAR figures, in vitro ptRNA^Tyr processing, read-out: pIC50 = processing IC50 (converted)
[6] = SAR figures, read-out: dIC50 = degradation IC50
[7] = Staphylococcus aureus, UAMS1, 16 h, S. aureus UAMS-1, 16 h in MHB, read-out: MIC
[8] = Staphylococcus aureus, UAMS1, SAR figures, S. aureus UAMS-1, read-out: MIC
[9] = in vitro ptRNA^Tyr processing, read-out: Processing IC50
[10] = Table S1, mupirocin synergy screening initial hits, read-out: processing IC50
[11] = Table S1, mupirocin synergy screening initial hits

SMILES | IC50 [1, 5] [µM] | IC50 [2, 6] [µM] | MIC [3, 7] [µg/mL] | MIC [3, 8] [µg/mL] | IC50 [1, 9] [µM] | IC50 ([2]; read-out: Degradation IC50) [µM] | MTT = % HepG2 cell survival [4] [%] | also measured
CCC1CCCCN1C(=O)Nc1ccccc1 (stereo not shown) [JC3c] | > 500 | > 500 | > 256 | > 256 |  |  |  | 
O=C(Nc1cc(Cl)cc(Cl)c1)N1CCCCCC1 [JC5] |  |  | 128 (≈ 446 µM) | 128 (≈ 446 µM) | 225 | 200 | 65.3 | 
CCC1CCCCN1C(=O)Nc1ccc(Br)cc1 (stereo not shown) [JC3e] | > 500 | > 500 | > 256 | > 256 |  |  |  | 
C/C(=C\C(=O)OCCCCCCCCC(=O)O)C[C@@H]1OC[C@H](C[C@@H]2O[C@H]2[C@@H](C)[C@H](C)O)[C@@H](O)[C@H]1O [mupirocin, reference compound] |  |  | 0.125 (≈ 0.25 µM) |  |  |  |  | 
O=C(Nc1ccc(Cl)cc1)N1CCCCCC1 [JC5c] | > 500 | > 500 | > 256 | > 256 |  |  |  | 
c1ccc(Nc2nc(-c3ccccn3)cs2)nc1 [compound 5625000] |  |  |  |  |  |  |  | IC50 [1, 10]: > 500 µM; MIC [3, 11]: 1.59 µg/mL
CC1CN(C(=O)Nc2cc(Cl)cc(Cl)c2)CC(C)O1 (stereo not shown) [JC9] |  |  |  | 32 (≈ 106 µM) | > 500 | > 500 | 82.5 | 
O=C(Nc1cccc(Cl)c1)N1CCCCCC1 [JC5b] | > 500 | > 500 | > 256 | > 256 |  |  |  | 
O=C(Nc1cc(Cl)cc(Cl)c1)N1CCCCC1 [JC4] | 300 |  | 256 (≈ 937 µM) | 256 (≈ 937 µM) |  | > 500 | 71.4 | 
CC1CCN(C(=O)Nc2cccc(Cl)c2)CC1 [JC1b] | > 500 | > 500 | > 256 | > 256 |  |  |  | 
Cc1ccc(NC(=O)N2CCCCC2C)cc1Cl (stereo not shown) [JC2c] | > 500 | > 500 | > 256 | > 256 |  |  |  | 
O=S(=O)(Nc1cccc2cccnc12)c1ccccc1 [compound 5175130] |  |  |  |  |  |  |  | IC50 [1, 10]: > 500 µM; MIC [3, 11]: 14.22 µg/mL
CC1CCCCN1C(=O)Nc1ccccc1 (stereo not shown) [JC2b] | > 500 | > 500 | > 256 | > 256 |  |  |  | 
CCCN1CCN(C(=O)Nc2cc(Cl)cc(Cl)c2)CC1 [JC8] | > 500 | 450 | 1 (≈ 3.16 µM) | 1 (≈ 3.16 µM) | ≥ 450 | ≥ 450 | 109 | % HepG2 Cell Survival [4]: 109.2%
CCN1CCN(C(=O)Nc2cc(Cl)cc(Cl)c2)CC1 [JC7] | > 500 | > 500 | 8 (≈ 26.5 µM) | 8 (≈ 26.5 µM) | ≥ 450 | ≥ 450 | 75.7 | 
O=C(Nc1ccc(Cl)cc1)c1c(NC(=O)C(F)(F)F)sc2c1CCCCC2 [JR1] |  |  | 0.25 to 1 (≈ 0.6 to 2.4 µM) | 0.5 (≈ 1.2 µM) | 12 | 62.5 | 80.6 | MIC ([3]; S. aureus UAMS-1, 16 h in MHB, listed as ST016037): 0.5 µg/mL (≈ 1.2 µM); MIC ([3]; Staphylococcus aureus, UAMS1, 16 h, Table S1, mupirocin synergy screening initial hits, read-out: MIC): 0.5 µg/mL; % HepG2 Cell Survival ([4]; listed as ST016037): 81%
Cc1cccc(/C=C/c2ccc3cccc(O)c3n2)c1O [compound 6634438] |  |  |  |  |  |  |  | IC50 [1, 10]: < 62.5 µM; MIC [3, 11]: 10.40 µg/mL
CCC1CCCCN1C(=O)Nc1cccc(C)c1 (stereo not shown) [JC3f] | > 500 | > 500 | > 256 | > 256 |  |  |  | 
CN1CCN(C(=O)Nc2cc(Cl)cc(Cl)c2)CC1 [JC6] | > 500 | > 500 | 8 (≈ 27.8 µM) | 8 (≈ 27.8 µM) | ≥ 450 | ≥ 450 | 61.6 | 

Second part, led by results:

IC50 [1, 5] [µM] | IC50 [2, 6] [µM] | MIC [3, 7] [µg/mL] | MIC [3, 8] [µg/mL] | IC50 [1, 9] [µM] | IC50 ([2]; read-out: Degradation IC50) [µM] | SMILES | MTT = % HepG2 cell survival [4] [%] | also measured
10 | 63 |  |  |  |  | O=C(Nc1ccccc1)c1c(NC(=O)C(F)(F)F)sc2c1CCCCC2 [JR4] |  | 
6 | 35 |  | 0.5 (≈ 1.24 µM) |  |  | O=C(Nc1cccc(Cl)c1)c1c(NC(=O)C(F)(F)F)sc2c1CCCC2 [JR3b] | 103.7 | 
2 | 100 | 0.25 to 1 (≈ 0.6 to 2.4 µM) | 0.5 (≈ 1.2 µM) |  |  | O=C(Nc1ccccc1Cl)c1c(NC(=O)C(F)(F)F)sc2c1CCCCC2 [JR2] | 85.3 | 
80 | 115 | 0.25 to 1 (≈ 0.631 to 2.52 µM) | 0.25 (≈ 0.631 µM) |  |  | Cc1ccc(NC(=O)c2c(NC(=O)C(F)(F)F)sc3c2CCCCC3)cc1 [JR5] | 82.8 | 
22 |  | 0.25 to 1 (≈ 0.606 to 2.42 µM) | 1 (≈ 2.42 µM) |  | > 250 | COc1ccc(NC(=O)c2c(NC(=O)C(F)(F)F)sc3c2CCCCC3)cc1 [JR6] | 53.3 | 
 |  | 64 (≈ 199 µM) | 64 (≈ 199 µM) | 25 | 175 | Nc1sc2c(c1C(=O)Nc1ccc(Cl)cc1)CCCCC2 [JR1c] | 54.5 | 
7 | 25 | 0.25 to 1 (≈ 0.6 to 2.4 µM) | 0.25 (≈ 0.6 µM) |  |  | O=C(Nc1cccc(Cl)c1)c1c(NC(=O)C(F)(F)F)sc2c1CCCCC2 [JR3] | 90.4 | 
 |  | > 256 | > 256 | 115 | > 250 | CC(=O)Nc1sc2c(c1C(=O)Nc1ccc(Cl)cc1)CCCCC2 [JR1b] | 84.9 | 
 | 62 | > 256 | > 256 | 100 |  | O=C(Nc1ccccc1Cl)c1c(NC(=O)C(F)(F)F)sc2c1CCCC2 [JR2b] | 59.5 | 
